Measurements as given in patent US20220356170A1, “SREBP INHIBITOR COMPRISING A THIOPHENE CENTRAL RING” (Capulus Therapeutics, LLC, priority 2019, published 2022).
Like-named read-outs stand apart in the source and are kept apart here.

Legend:
[1] = In vivo pharmacokinetics, intravenous; conditions: male C57 BL/6 mice, dose 2.00 mg/kg (Compound 1), 2.43 mg/kg (Compound 2); for Vd: male, C57 BL/6, mouse, iv
Method: The in vivo pharmacokinetic properties of Compound 1 by both intravenous and oral administration were evaluated in male C57 BL/6 mice. The in vivo pharmacokinetic properties of Compound 2 by both intravenous and oral administration were evaluated in male C57 BL/6 mice for comparison.
Animals were housed in cages with clean bedding. Certified rodent diet was provided. Water was available ad libitum. Environmental controls for the animal room were set to maintain a temperature of 22 to 25° C., humidity of 40-70% RH, and a 12-hour light /12-hour dark cycle. Normal healthy animals certified by the attending veterinarian were selected and acclimatized for minimum three days prior to initiation of study.
Procedure for Blood Withdrawal: Mice were anesthetized using gaseous anesthesia. Blood samples were collected through a capillary, guided in retro-orbital plexus. At each time point, blood samples from 3 mice of each respective group were collected. The blood samples were collected in pre-labeled tubes. 0.2 to 0.3 mL of blood were collected from each mouse. After collection of the blood samples at each time point, the samples were stored on ice prior to centrifugation. Blood samples were centrifuged within 15 minutes to separate plasma. Centrifugations was done at 1540 rcf (5000 rpm) at 4° C. for 10 minutes. The plasma was separated and transferred to pre-labeled micro-centrifuge tubes and promptly frozen at −80±10° C. until bioanalysis was performed. Samples were identified by test item, group, animal number, and collection time point.
To evaluate pharmacokinetic properties of intravenous delivery, nine male C57 BL/6 mice were administered 2.00 mg Compound 1/kg animal weight through the tail vein. The concentration of Compound 1 in the plasma of the animals was evaluated at 0.083, 0.25, 0.5, 1, 2, 4, 8, and 24 hr by taking blood samples from the mice. Compound 2 was similarly administered for comparison.

[2] = Half-life in rat liver microsomes; format: in vitro ADME; conditions: read-out: Rat LM: Half life
Method: (§1) Half-life Human Microsomes: Compound 1 was evaluated for stability in human liver microsomes. A 10 mM stock solution of Compound 1 was prepared in DMSO and diluted with water: acetonitrile (1:1) to a concentration of 1 mM. A working concentration of 100 μM was prepared by further dilution with water: acetonitrile (1:1). To make the preincubation mixture, 2.5 μL of the diluted Compound 1 was combined with 75 μL of human liver microsomes at 3.33 mg/mL, and 85 μL of 100 mM potassium phosphate buffer, and this mixture pre-incubated for 10 min at 37° C. To make the 60 minute mixture without cofactor, 32.5 μL of the preincubation mixture was combined with 17.5 μL of 100 mM potassium phosphate buffer and incubated for 60 min at 37° C. […] To prepare the sample mixture to be evaluated, 25 μL incubation mixture was combined with 200 μL of acetonitrile containing internal standard and vortexed for 5 min at 1200 rpm, then centrifuged for 10 min at 4000 rpm. […] The sample mixture was evaluated by LC-MS/MS using 10 mM ammonium acetate with 0.1% FA as the aqueous mobile phase, and methanol as the organic mobile phase.
(§2) Half-life Rat and Mouse Microsomes: Compound 1 was evaluated in rat and mouse liver microsomes following a similar procedure as described above for human liver microsomes.

[3] = Log D, octanol/aqueous buffer partitioning; format: physicochemical; conditions: 1-octanol/aqueous buffer; 1-octanol/buffer
Method: Log D Procedure: The Log D of Compound 1 was evaluated by octanol/aqueous buffer partitioning. 500 μL of organic phase (1-octanol) was added to each well of a 2 mL deep well plate, followed by 500 μL of buffer and 15 μL of test compound in DMSO (0.15 mM). The plate was vortexed for 10 seconds and incubated at room temperature for 1 hr on a plate shaker at 200 rpm. After incubation, the samples were allowed to equilibrate for 20 min and then centrifuged at 4000 rpm for 30 min for complete phase separation. The distribution of test compound in buffer and octanol phase was analyzed by HPLC-UV. Log D=Log (Area of Octanol/Area of Buffer)

[4] = In vitro % Fu, mouse plasma; format: in vitro ADME; conditions: read-out: In Vitro % Fu (Mo Plasma)
[5] = Half-life in mouse liver microsomes; format: in vitro ADME; conditions: read-out: Mouse LM: Half life
Method: as §1, §2

SF268 = assay: Cancer cell growth inhibition, Sulforhodamine B; format: cell-based; conditions: Homo sapiens, SF-268; SF268 (brain), 72 hr; Non-Responder Cell Lines with IC50 >10 uM or Not Determined
Method: (§3) The ability of select compounds to inhibit cell growth in various cancer cell lines are evaluated. […] The cell lines shown in Table 5 have reduced growth by at least 50% at 10 uM or lower over 72 hr treatment in growth media. The cell lines shown in Table 6 have reduced growth by at least 50% with an IC50 greater than 10 uM.
(§4) Six 10-fold compound dilutions are prepared in DMSO (e.g. 10 mM, 1 mM, 100 uM, 10 uM, 1 uM, and 0.1 uM). Single data points are acquired for each concentration. The final concentration of DMSO is 0.1%. The duration of the treatment is 72 hr. Growth inhibition is measured using Sulforhodamine B in a protein staining assay. Activity of the agents is determined by evaluation the following parameters: IC50, GI50, IC10, TGI, LC50, IC90, and GI90 (where these values can be calculated).

DLD1 = assay: Cancer cell growth inhibition, Sulforhodamine B; format: cell-based; conditions: Homo sapiens, DLD-1; DLD1 (colon), 72 hr; Non-Responder Cell Lines with IC50 >10 uM or Not Determined
Method: as §3, §4

MDAMB436 = assay: Cancer cell growth inhibition, Sulforhodamine B; format: cell-based; conditions: Homo sapiens, MDA-MB-436; MDAMB436 (breast), 72 hr; Non-Responder Cell Lines with IC50 >10 uM or Not Determined
Method: as §3, §4

[6] = Half-life in human liver microsomes; format: in vitro ADME; conditions: NADPH, 37° C., read-out: Human LM: Half life
Method: Half-life Human Microsomes: Compound 1 was evaluated for stability in human liver microsomes. A 10 mM stock solution of Compound 1 was prepared in DMSO and diluted with water: acetonitrile (1:1) to a concentration of 1 mM. A working concentration of 100 μM was prepared by further dilution with water: acetonitrile (1:1). To make the preincubation mixture, 2.5 μL of the diluted Compound 1 was combined with 75 μL of human liver microsomes at 3.33 mg/mL, and 85 μL of 100 mM potassium phosphate buffer, and this mixture pre-incubated for 10 min at 37° C. To make the 60 minute mixture without cofactor, 32.5 μL of the preincubation mixture was combined with 17.5 μL of 100 mM potassium phosphate buffer and incubated for 60 min at 37° C. To make the 0 min sample with cofactor (NADPH), 16.25 μL of the preincubation mixture was combined with 200 μL of acetonitrile containing internal standard and 8.75 μL of cofactor (NADPH). […] To prepare the sample mixture to be evaluated, 25 μL incubation mixture was combined with 200 μL of acetonitrile containing internal standard and vortexed for 5 min at 1200 rpm, then centrifuged for 10 min at 4000 rpm. […] The sample mixture was evaluated by LC-MS/MS using 10 mM ammonium acetate with 0.1% FA as the aqueous mobile phase, and methanol as the organic mobile phase.

[7] = In vitro % Fu, human plasma; format: in vitro ADME; conditions: read-out: In Vitro % Fu (Hu Plasma)

## CC(C)(O)c1cc(-c2csc(-c3ccc(C(=O)N4CCC(O)CC4)cc3Cl)c2)ccn1 [Compound 1, (3-chloro-4-(4-(2-(2-hydroxypropan-2-yl)pyridin-4-yl)thiophen-2-yl)phenyl)(4-hydroxypiperidin-1-yl)methanone]
[1]
  AUCExtra: 7.27%
[1]; plasma, read-out: Vd
  Vd: 0.73 L/kg
[1]; plasma, read-out: Vss
  Vd: 0.7 L/kg
[1]; mouse, plasma
  AUC(0-inf): 25700 ng·h/mL
  AUC(0-t): 23800 ng·h/mL
  C0: 4630 ng/mL
  clearance: 1.3 mL/min/kg
  half-life: 6.5 h
[1]; mouse, plasma, read-out: MRT0-last
  MRT last: 7.07 h
[2]
  half-life at 1 µM: 1.68 h
[3]
  logD: 3.38
[4]
  fraction unbound: 0.007
[5]
  half-life at 1 µM: 2 h
SF268
  IC50: > 10 µM
DLD1
  IC50: > 10 µM
MDAMB436
  IC50: > 10 µM
[6]
  half-life at 1 µM: 1.08 h
[7]
  fraction unbound: 0.026
